The source of these data is patent US9458123B2, “Methods, pharmaceutical compositions, therapeutic systems, and compounds for treating B cell malignancies” (University of Rochester, priority 2012, dated 2016).

Assay [1] relates to PMA-induced NF-κB activation in SUDHL-6 cells. Kind of assay: IκBα phosphorylation after PMA, western blot. The following applies: SUDHL-6, PMA 100 ng/ml. Format: cell-based. The procedure:
(§1) SUDHL-6, RAW264.7, and MEF cells were treated with NSC697923 or DMSO (control) for 1 hour before being stimulated with the PMA (100 ng/ml), RANKL (15 ng/ml), and LPS (1.5 μg/ml) for the indicated times. The levels of IκBα phosphorylation in the indicated samples were assessed by western blotting.
(In general: Immunoblotting shows a protein as a band on a membrane.)

For the next assay, the target named is T1, UbcH5c (Homo sapiens, UniProt P61077).
T1 construct: purchased Boston Biochem Inc E2-627
In words: In vitro UbcH5c~Ub thioester conjugate formation. Format: biochemical. As to the method: Purified GST or GST-Ubc13 fusion proteins were incubated with the cell extract prepared from OCI-Ly10 cells with or without the presence of NSC697923 as indicated. The amounts of Uev1A protein associated with GST or GST-Ubc13 were analyzed by western blotting. The first lane was loaded with 8% of the input cell lysate. […] The assay was carried out as described in FIG. 4A, except that the loading buffer for SDS-PAGE gel contains no reducing agent, unless otherwise specified, and the reaction was analyzed by western blotting with a Ubc13-specific antibody. […] The assay was carried out as in FIG. 5B, except that UbcHSc, instead of Ubc13 and Uev1A, was used in the ubiquitination reaction and that a UbcHSc antibody was used for western blot analysis.
For detecting the E2-ubiquitin (Ubc13˜Ub or UbcH5c˜Ub) thioester conjugates, the reactions were carried out as described above without GST-TRAF6. The reactions were terminated with the SDS-sample buffer without a reducing agent unless specified. The products were analyzed by western blotting with an anti-Ubc13 or anti-UbcHSc antibody as indicated.

For assay [2], the system named is OCI-Ly10 cells. In words: Cell cycle distribution, PI and BrdU double staining. Format: cell-based. Conditions: short time (5 hour) treatment. As to the method: (§2) The indicated ABC DLBCL cells were seeded at 3×10^5 cells/ml in 6-well plates and cultured in the presence of DMSO (0.2%, control) or various concentrations of NSC697923 for 24 hours. The live and dead cells were counted using the trypan blue exclusion assay. Shown are the means from three separate experiments. The average number of live cells in the control was set at 100. […] The levels of the indicated proteins were analyzed by western blotting. For caspase 3 detection, a mixture of an antibody for the uncleaved form and an antibody specific for the cleaved form was used. In FIG. 7C, OCI-Ly10 cells were treated as in FIG. 7A. The apoptotic cells (Annexin V positive cells) were measured by flow cytometry as described in Example 1 infra. A representative result from three independent experiments is depicted. […] BrdU was then added into the culture medium for 30 minutes before the cell-cycle distribution of the treated cells was analyzed as described in Example 1 infra. Shown are the averages from two independent experiments. […] BrdU was then added into the culture medium for 30 minutes before the cell-cycle distribution of the treated cells was analyzed as described in Example 1 infra. Shown are the averages from two independent experiments. […]

The next assay relates to OCI-Ly7 cells. The assay is described as above. Format: cell-based. The following applies: short time (5 hour) treatment. As to the method:
as §2

In assay [3] the test system is OCI-Ly10 cells. Kind of assay: Apoptosis of OCI-Ly10 cells (western blot, 7AAD/annexin V flow cytometry). Format: cell-based. The procedure: The indicated ABC DLBCL cells were seeded at 3×10^5 cells/ml in 6-well plates and cultured in the presence of DMSO (0.2%, control) or various concentrations of NSC697923 for 24 hours. The live and dead cells were counted using the trypan blue exclusion assay. Shown are the means from three separate experiments. The average number of live cells in the control was set at 100. […] The levels of the indicated proteins were analyzed by western blotting. For caspase 3 detection, a mixture of an antibody for the uncleaved form and an antibody specific for the cleaved form was used. In FIG. 7C, OCI-Ly10 cells were treated as in FIG. 7A. The apoptotic cells (Annexin V positive cells) were measured by flow cytometry as described in Example 1 infra. A representative result from three independent experiments is depicted. […] BrdU was then added into the culture medium for 30 minutes before the cell-cycle distribution of the treated cells was analyzed as described in Example 1 infra. Shown are the averages from two independent experiments. […] BrdU was then added into the culture medium for 30 minutes before the cell-cycle distribution of the treated cells was analyzed as described in Example 1 infra. Shown are the averages from two independent experiments.
(§3) Apoptosis was assayed using the 7AAD/annexin V apoptosis kit (BD Bioscience) as previously described (Kim et al., “Protein Kinase C-Associated Kinase is Required for NF-kappaB Signaling and Survival in Diffuse Large B-Cell Lymphoma Cells,” Blood 111:1644-1653 (2008), which is hereby incorporated by reference in its entirety). Analysis of the cell cycle distribution of the treated cells was carried out with propidium iodide (PI) and BrdU double staining as previously described (DeRan et al., “Assessing G1-to-S-Phase Progression after Genotoxic Stress,” Methods Mol. Biol. 782:221-230 (2011) and Su et al., “DNA Damage Induces Downregulation of Histone Gene Expression Through the G1 Checkpoint Pathway,” EMBO. J. 23:1133-1143 (2004), each of which is hereby incorporated by reference in its entirety).

The test system of the next assay is OCI-Ly7. Kind of assay: Proliferation and survival of GCB DLBCL cells (trypan blue, annexin V). Format: cell-based. The following applies: OCI-Ly7, 24 hours. The procedure:
(§4) In FIG. 8A, the GCB DLBCL cells were plated at the indicated cell concentrations and treated with various concentrations of NSC697923 for 24 hours. The effects of NSC697923 on the growth of these cells were analyzed as described in FIG. 7A. In FIG. 8B, the cells were plated at a concentration of 4×10^5 cells/ml and treated with NSC697923 as in FIG. 8A, and the apoptotic cells were analyzed as described in FIG. 7C.
as §3

In the next assay the test system is SUDHL-6. The assay is described as above. In kind it is cell-based. Conditions: SUDHL-6, 24 hours. The procedure: as §4, §3
Assay [4] has as its system IκBα phosphorylation by RANKL in RAW264.7 cells. Kind of assay: IκBα phosphorylation after RANKL, western blot. In kind it is cell-based. The following applies: RAW264.7, RANKL 15 ng/ml. The procedure:
as §1

Assay [5] concerns K63-linked ubiquitination and repair protein recruitment in U2OS cells. In words: DNA double-strand break focus formation after γ-irradiation. In kind it is cell-based. The following applies: 1 μM, γ-irradiated 10 Gy. As to the method: Osteosarcoma U2OS cells were pretreated with 1 μM NSC697923 for 1 hour before γ-irradiated (10 Gy). 30 minutes after irradiation, the cells were fixed and stained with the monoclonal antibody FK2, which recognizes protein-conjugated, but not free, ubiquitin and marks the foci formed by K63-linked ubiquitinated proteins at sites of DSBs. […] U2OS cells were treated as described in FIG. 13A except that the focus formation of the indicated proteins is detected with their respective antibodies.

T1 sequence (P61077 whole entry): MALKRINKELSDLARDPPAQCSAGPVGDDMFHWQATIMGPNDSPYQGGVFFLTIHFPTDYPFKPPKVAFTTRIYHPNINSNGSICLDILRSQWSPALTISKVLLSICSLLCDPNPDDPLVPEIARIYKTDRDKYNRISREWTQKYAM

As to `Cc1ccc(S(=O)(=O)c2ccc([N+](=O)[O-])o2)cc1` [NSC697923, 2-nitro-5-tosylfuran], the “PMA-induced NF-κB activation (IκBα phosphorylation)” value in [1] is “inhibiting”. Also, the “formation of UbcH5c~Ub conjugate” value on UbcH5c is recorded as “is not inhibited”. In addition, the “cells in S phase” value in the assay with OCI-Ly10 cells [2] is on record as “marked decrease of cells in S phase”. The “cells in S phase” value in the assay on OCI-Ly7 cells is on record as “marked decrease of cells in S phase”. Further, in the assay on OCI-Ly10 cells [3] (5 hours), the PARP entry was “cleavage of PARP” and the “caspase 3” value is reported as “activation of caspase 3”. Further, in the assay with OCI-Ly10 cells [3] (24 hours), the “annexin V-positive cells” value is recorded as “increase in annexin V-positive cells”. In addition, the proliferation and survival entry in the assay on OCI-Ly7 is “inhibited proliferation and survival”. Moreover, the proliferation and survival entry in the assay with SUDHL-6 was “inhibited proliferation and survival”. Besides, the “IκBα phosphorylation by RANKL” value in assay [4] is recorded as “inhibited”. Also, in assay [5], the FK2 focus formation result is reported as “inhibition of FK2 focus formation”, the “recruitment of 53BP1 to sites of DNA double-strand breaks” value is “inhibits recruitment” and the “recruitment of BRCA1 to sites of DNA double-strand breaks” value is “inhibits recruitment”.
